We go through 91 sequences from the OligoGym collection.

Several values for one entry are separate records, joined by “and”; a condition that tells them apart may be missing. Equal values may be shown once. After the bases stand the sugars from the 5' end (letter, count) and the backbone: PS all phosphorothioate, else s phosphorothioate and o phosphodiester by linkage. Methylation of C is not given here. e = 2'-O-(2-methoxyethyl) (MOE); k = constrained ethyl (cEt); d = 2'-deoxy (DNA)

One data set addresses IRF4. The note with it: ASO, MM.1R, 0.0625 µM.
With CCGTGATCTGAGACTA (sugars k3 d10 k3, PS), the target mRNA inhibition amounted to 0%. For the sequence CGATCATCAACTTCTT (sugars k3 d10 k3, PS), the target mRNA inhibition is 24% and 23%.

As for CGGATAGATCTGTGGT (sugars k3 d10 k3, PS), the target mRNA inhibition is -25%.

Staying with this data set, now noted: ASO, MM.1R, 0.25 µM.
In the case of CCGTGATCTGAGACTA (sugars k3 d10 k3, PS), the target mRNA inhibition stood at 13%.

CGATCATCAACTTCTT (sugars k3 d10 k3, PS): the target mRNA inhibition worked out at 50%. CGGATAGATCTGTGGT (sugars k3 d10 k3, PS): the target mRNA inhibition is -3%.

The same data set, now with this note: ASO, MM.1R, 1 µM.
With CCGATGCTTCAAGACA (sugars k3 d10 k3, PS), the target mRNA inhibition is 13%. The same measure, in the same setting: in the case of CCGGTAGAGTGAGATG (sugars k3 d10 k3, PS) it was -3%. As to CCGTGATCTGAGACTA (sugars k3 d10 k3, PS), the target mRNA inhibition is 45% and 30%.

On to CCTATAACTTCTCCTG (sugars k3 d10 k3, PS), for which the target mRNA inhibition is -7%. Take “CCTCAGTTTGTGAAGC (sugars kddddddddddkekek, PS)”: the target mRNA inhibition stood at 26%. Still for that read-out and setting: in the case of “CCTCAGTTTGTGAAGC (sugars kkdddddddddkdkdk, PS)” it was 8%; in that of CCTGAAAAGAGCCGCC (sugars k3 d10 k3, PS), -3%.

In the case of CCTGAGTTACCGCATT (sugars k3 d10 k3, PS), the target mRNA inhibition is 24%. In the case of CGAGGTGATTCTCGGG (sugars k3 d10 k3, PS), the target mRNA inhibition amounted to 15%. Regarding CGATCATCAACTTCTT (sugars k3 d10 k3, PS), the target mRNA inhibition is 72% and 75%. The same measure, in the same setting: the value for CGCGACTCTGTCAGTT (sugars k3 d10 k3, PS) was 8%.

Turning to CGGACACGCCCGACCC (sugars k3 d10 k3, PS), the target mRNA inhibition was found to be 7%. On to CGGCAGTCTGCAAACA (sugars k3 d10 k3, PS), for which the target mRNA inhibition was 24%. As to CGGGAGCCCGGAGGAA (sugars k3 d10 k3, PS), the target mRNA inhibition is -3%.

For the sequence CGGTCAGCAGAACCAC (sugars k3 d10 k3, PS), the target mRNA inhibition was -8%. With CGTGATCTGAGACTAC (sugars k3 d10 k3, PS), the target mRNA inhibition was 25% and 36%. As to “CGTGTGCTTGCCAAGC (sugars kdddddddddkekeke, PS)”, the target mRNA inhibition was 24% and 11%. The same measure, in the same setting: in the case of “CGTGTGCTTGCCAAGC (sugars kkdddddddddkdkdk, PS)” it was 67% and 53%; in that of “CTATAGTGTTCCAGGA (sugars kkdddddddddkekek, PS)”, 43%; in that of “CTCTATAGTGTTCCAG (sugars kkddddddddddkeke, PS)”, 27%. For the sequence “CTCTATAGTGTTCCAG (sugars kkdddddddddkdkdk, PS)”, the target mRNA inhibition was 31%.

In the case of “CTCTATAGTGTTCCAG (sugars kkkdddddddddkeke, PS)”, the target mRNA inhibition worked out at 49%.

With “CTCTATAGTGTTCCAG (sugars kkkddddddddkekek, PS)”, the target mRNA inhibition came out at 15%. In the case of CTCTGTAACTGACTAA (sugars k3 d10 k3, PS), the target mRNA inhibition came out at 16%. On the same count and under the same terms, the value for CTCTTCAGGCACCCAC (sugars k3 d10 k3, PS) was 13%; that for CTGCCACTGGTAACTG (sugars k3 d10 k3, PS) was 21%.

Staying with this data set, now noted: ASO, MM.1R, 4 µM.
Regarding CCGTGATCTGAGACTA (sugars k3 d10 k3, PS), the target mRNA inhibition turned out to be 71%. The same measure, in the same setting: the value for CGATCATCAACTTCTT (sugars k3 d10 k3, PS) was 92% and 93%; that for CGGATAGATCTGTGGT (sugars k3 d10 k3, PS) was 50%.

In the case of CGTAGCCCCTCAGGAA (sugars k3 d10 k3, PS), the target mRNA inhibition was 81% and 59%.

Staying with this data set, now noted: ASO, SK-MEL-28, 4 µM.
Consider CCCTTAGGAACGAAGA (sugars k3 d10 k3, PS), for which the target mRNA inhibition is -6%.

For the sequence CCGAATAGGACCCCTA (sugars k3 d10 k3, PS), the target mRNA inhibition worked out at 32%.

As for CCGACACGCGCCGCTC (sugars k3 d10 k3, PS), the target mRNA inhibition is 30%. For CCGCACGCAAGGCTCG (sugars k3 d10 k3, PS), the target mRNA inhibition was found to be 16%. With CCGCGAAGGCTCCTAC (sugars k3 d10 k3, PS), the target mRNA inhibition is 14%. On the same count and under the same terms, in the case of CCGGAGCAGGCCCGGG (sugars k3 d10 k3, PS) it was -13%; in that of CCGGAGGCCGCCGTGA (sugars k3 d10 k3, PS), 13%. Same read-out and setting: in the case of CCGTATCCCCGTATCA (sugars k3 d10 k3, PS) it was 35%.

As to CCTACACAGGCTAATC (sugars k3 d10 k3, PS), the target mRNA inhibition was 13%. On the same count and under the same terms, in the case of CCTACTGGGTACATGG (sugars k3 d10 k3, PS) it was 63%; in that of CCTCAGGAAATGTCCA (sugars k3 d10 k3, PS), 37%; in that of CCTCAGGAAATGTCCA (sugars k4 d8 k4, PS), 10%. Same read-out and setting: the value for CCTGAATTTACAGCAT (sugars k3 d10 k3, PS) was 40%; that for CCTGGCGGCCTCCACG (sugars k3 d10 k3, PS) was -31%; that for CCTGGGACTCAGGTGG (sugars k4 d8 k4, PS) was 7%. Same read-out and setting: in the case of CCTGGGAGTAATAGTA (sugars k3 d10 k3, PS) it was 53%. CCTGGTCCAGGTTGCT (sugars k4 d8 k4, PS): the target mRNA inhibition came out at 34%. In the case of CCTGTCACCTGGCAAC (sugars k3 d10 k3, PS), the target mRNA inhibition turned out to be 41%. The same measure, in the same setting: in the case of CCTTGAAGAGCGCGGC (sugars k3 d10 k3, PS) it was 24%; in that of CCTTTTCAGAGTCCTG (sugars k3 d10 k3, PS), 58%; in that of CGAAAACAGCCGCCGG (sugars k3 d10 k3, PS), 15%. On the same count and under the same terms, the value for CGCAAAACCCCTCAAG (sugars k3 d10 k3, PS) was 19%; that for CGCAAGGCTCGGAGCG (sugars k3 d10 k3, PS) was 10%. Regarding CGCAGCATCGAACTCC (sugars k3 d10 k3, PS), the target mRNA inhibition turned out to be 33%. Same read-out and setting: the value for CGCCAGGCCGGCTAGG (sugars k3 d10 k3, PS) was 10%; that for CGCGAAGGCTCCTACC (sugars k3 d10 k3, PS) was -41%; that for CGCTGAACTGAAATCT (sugars k3 d10 k3, PS) was 37%. Still for that read-out and setting: the value for CGGCACAGGCGCGGAC (sugars k3 d10 k3, PS) was 4%; that for CGTAACTCAGGCACCA (sugars k3 d10 k3, PS) was 30%. Same read-out and setting: the value for CGTATGTCCATGGGAG (sugars k3 d10 k3, PS) was 88%. In the case of CTAAACTCCTAAGTAC (sugars k3 d10 k3, PS), the target mRNA inhibition is 14%. For CTAACAGATAACGAGG (sugars k3 d10 k3, PS), the target mRNA inhibition turned out to be 23%. The same measure, in the same setting: in the case of CTAACTTACAGGACTA (sugars k3 d10 k3, PS) it was 31%; in that of CTAAGCTTGATAAAGG (sugars k3 d10 k3, PS), 54%; in that of CTAATACCTACCTGCC (sugars k3 d10 k3, PS), 47%.

CTACAAGCAGTCATCA (sugars k3 d10 k3, PS): the target mRNA inhibition turned out to be 44%. Same read-out and setting: the value for CTACAAGGTCTGAGTT (sugars k3 d10 k3, PS) was 17%. Still for that read-out and setting: the value for CTACAGGCACGGCTTC (sugars k3 d10 k3, PS) was 52%; that for CTACTATTGTGGAAAA (sugars k3 d10 k3, PS) was 3%. Take CTAGAAAGAGCTGGTA (sugars k3 d10 k3, PS): the target mRNA inhibition was 15%.

As to CTAGAAAGTGATGCTC (sugars k3 d10 k3, PS), the target mRNA inhibition came to 39%. The same measure, in the same setting: in the case of CTAGAACATGATGAGA (sugars k3 d10 k3, PS) it was 29%; in that of CTAGATAACATGAGAG (sugars k3 d10 k3, PS), 53%; in that of CTATAATTGGCACGAG (sugars k3 d10 k3, PS), 63%. In the case of CTCACGAGCACCTCAG (sugars k3 d10 k3, PS), the target mRNA inhibition was 42%. For CTCACTGCTCACTAAG (sugars k3 d10 k3, PS), the target mRNA inhibition is 64%. On the same count and under the same terms, in the case of CTCCAAAGCATAGAGT (sugars k3 d10 k3, PS) it was 23%; in that of CTCCAACCCTAGATAA (sugars k3 d10 k3, PS), 2%; in that of CTCCAGGGAATGGATA (sugars k3 d10 k3, PS), 27%. As to CTCCATTCAAGCCAGT (sugars k3 d10 k3, PS), the target mRNA inhibition worked out at 58%. As for CTCCCAGAGTTGTTCC (sugars k3 d10 k3, PS), the target mRNA inhibition came out at 34%. Still for that read-out and setting: in the case of CTCCTACCCGCCTGCT (sugars k3 d10 k3, PS) it was 15%; in that of CTCCTATAACTTCTCC (sugars k3 d10 k3, PS), 33%; in that of CTCGGCCGCCGCCCTC (sugars k3 d10 k3, PS), 37%.

CTCTTAGGCACATCAA (sugars k3 d10 k3, PS): the target mRNA inhibition turned out to be 61%.

Turning to CTGAAGCTTAGTTATC (sugars k3 d10 k3, PS), the target mRNA inhibition came to 38%. CTGAGATAAGAAGCAC (sugars k3 d10 k3, PS): the target mRNA inhibition worked out at 37%. Still for that read-out and setting: in the case of CTGCAACTGGCTCACT (sugars k3 d10 k3, PS) it was 10%.

On to CTGCAGGGTAATTTAG (sugars k3 d10 k3, PS), for which the target mRNA inhibition was 34%. On the same count and under the same terms, in the case of CTGCATCGAGATCAGT (sugars k3 d10 k3, PS) it was 52%; in that of CTGCATGAAAGTGTGT (sugars k3 d10 k3, PS), 56%.

As to CTGCGGGTCCTCCAGG (sugars k3 d10 k3, PS), the target mRNA inhibition turned out to be 20%. As to CTGCTCTGGCACAGTC (sugars k3 d10 k3, PS), the target mRNA inhibition worked out at 83%.
